{
  "source": "paper PMC8776228",
  "about": "(International Journal of Molecular Sciences, 2022)",
  "key": {"M. tuberculosis H37Rv [1]": {"tested_on": "M. tuberculosis H37Rv", "assay": "microbe, parasite or virus in culture", "format": "cell-based", "settings": "Mycobacterium tuberculosis"}, "M. smegmatis mc^2155 [2]": {"tested_on": "M. smegmatis mc^2155", "assay": "microbe, parasite or virus in culture", "format": "cell-based, Mycobacterium smegmatis", "settings": "Mycolicibacterium smegmatis"}, "M. smegmatis DprE1 [3]": {"biological_target": "T1, M. smegmatis DprE1 (Mycolicibacterium smegmatis, UniProt A0R607)", "settings": "cited from earlier work"}, "M. smegmatis DprE1 [4]": {"biological_target": "T1, M. smegmatis DprE1", "assay": "biochemical", "set-up": "species or system Mycobacterium smegmatis"}, "M. tuberculosis H37Rv [5]": {"tested_on": "M. tuberculosis H37Rv"}, "M. smegmatis DprE1 C394A [6]": {"biological_target": "T2, M. smegmatis DprE1 C394A (Mycolicibacterium smegmatis, UniProt A0R607, C386A)"}, "M. smegmatis DprE1 C394S [7]": {"biological_target": "T3, M. smegmatis DprE1 C394S (Mycolicibacterium smegmatis, UniProt A0R607, C386S)"}, "[8]": {"tested_on": "M. smegmatis mc^2155-pJV53H DprE1 L282F"}, "[9]": {"tested_on": "M. smegmatis mc^2155-pJV53H DprE1 L282V"}, "M. tuberculosis H37Rv [10]": {"tested_on": "M. tuberculosis H37Rv", "remark": "listed apart in the source"}, "M. smegmatis mc^2155 [11]": {"tested_on": "M. smegmatis mc^2155"}, "M. avium": {"tested_on": "M. avium", "settings": "cited from earlier work"}, "M. bovis": {"tested_on": "M. bovis", "settings": "cited from earlier work"}, "M. tuberculosis": {"tested_on": "M. tuberculosis", "settings": "cited from earlier work"}, "M. smegmatis": {"tested_on": "M. smegmatis", "settings": "cited from earlier work"}, "M. kansasii": {"tested_on": "M. kansasii", "settings": "cited from earlier work"}, "M. abscessus": {"tested_on": "M. abscessus", "settings": "cited from earlier work"}, "M. smegmatis DprE1 C394A [12]": {"biological_target": "T2, M. smegmatis DprE1 C394A", "assay": "biochemical"}, "M. smegmatis DprE1 C394S [13]": {"biological_target": "T3, M. smegmatis DprE1 C394S", "assay": "biochemical"}, "M. smegmatis DprE1 L282F": {"biological_target": "M. smegmatis DprE1 L282F (Mycolicibacterium smegmatis, UniProt A0R607, L274F/L282F)", "assay": "biochemical"}, "M. smegmatis DprE1 L282V": {"biological_target": "M. smegmatis DprE1 L282V (Mycolicibacterium smegmatis, UniProt A0R607, L274V/L282V)", "assay": "biochemical"}},
  "note": "Values joined by “and” are separate entries in the source; they are usually repeats but may differ in a detail not shown here. Equal values may be shown once. Read-outs that look alike come from different tables or passages of the source.",
  "data": [
    {"compound": "C[C@H]1COC2(CCN(c3nc(=O)c4cc(C(F)(F)F)cc([N+](=O)[O-])c4s3)CC2)O1", "note": "[BTZ043]", "values": [
      {"measurement": "MIC", "setting": "M. tuberculosis H37Rv [1]; read-out: MIC BTZ043", "result": 0.001, "unit": "µg/mL"},
      {"measurement": "MIC", "setting": "M. smegmatis mc^2155 [2]; MC^2155, read-out: MIC BTZ-043", "result": 0.008, "unit": "µg/mL"},
      {"measurement": "IC50", "setting": "M. smegmatis DprE1 [3]", "result": 0.004, "unit": "µM"}
    ]},
    {"compound": "NNC(=O)c1ccncc1", "note": "[INH, isoniazid]", "values": [
      {"measurement": "MIC", "setting": "M. tuberculosis H37Rv [1]; read-out: MIC INH", "result": 0.025, "unit": "µg/mL"}
    ]},
    {"compound": "CO/N=C1\\C[C@]2(C[C@@H]3C[C@@H](C/C=C(\\C)C[C@@H](C)/C=C/C=C4\\CO[C@@H]5[C@H](O)C(C)=C[C@@H](C(=O)O3)[C@]45O)O2)O[C@H](/C(C)=C/C(C)C)[C@H]1C", "note": "[Moxidectin]", "values": [
      {"measurement": "IC50", "setting": "M. smegmatis DprE1 [4]", "result": "6.1 ± 0.9", "unit": "µM"}
    ]},
    {"compound": "CO[C@H]1C[C@H](O[C@@H]2/C(C)=C/C[C@@H]3C[C@@H](C[C@]4(CC[C@H](C)[C@@H](C5CCCCC5)O4)O3)OC(=O)[C@@H]3C=C(C)/C(=N/O)[C@H]4OC/C(=C\\C=C\\[C@@H]2C)[C@]43O)O[C@@H](C)[C@@H]1O", "note": "[Selamectin]", "values": [
      {"measurement": "MIC", "setting": "M. tuberculosis H37Rv [1]; read-out: MIC SEL", "result": 4, "unit": "µg/mL"},
      {"measurement": "IC50", "setting": "M. smegmatis DprE1 [4]; IC50", "result": "~2.6 µM and 2.6 µM"},
      {"measurement": "MIC", "setting": "M. smegmatis mc^2155 [2]; MC^2155, read-out: MIC SEL", "result": 4, "unit": "µg/mL"},
      {"measurement": "day at which the limit of detection (1-log CFU/mL) was reached", "setting": "M. tuberculosis H37Rv [5]", "result": 22, "unit": "day"},
      {"measurement": "day at which the limit of detection (1-log CFU/mL) was reached", "setting": "M. tuberculosis NTB1", "result": 11, "unit": "day"},
      {"measurement": "time–kill activity against NTB1 compared to H37Rv", "setting": "M. tuberculosis NTB1", "result": "more active"},
      {"measurement": "IC50 compared to the wild type enzyme", "setting": "M. smegmatis DprE1 C394A [6]", "result": "in the same range"},
      {"measurement": "IC50 compared to the wild type enzyme", "setting": "M. smegmatis DprE1 C394S [7]", "result": "slightly higher"},
      {"measurement": "change in susceptibility compared to wild-type M. smegmatis (MIC)", "setting": "[8]", "result": "no changes in their susceptibilities"},
      {"measurement": "change in susceptibility compared to wild-type M. smegmatis (MIC)", "setting": "[9]", "result": "no changes in their susceptibilities"},
      {"measurement": "^14C uptake", "setting": "M. tuberculosis H37Rv [10]", "result": "general decrease"},
      {"measurement": "changes in lipid composition associated with inhibition of arabinan synthesis", "setting": "M. tuberculosis H37Rv [10]", "result": "did not result in significant changes"},
      {"measurement": "^14C uptake", "setting": "M. smegmatis mc^2155 [11]", "result": "general decrease"},
      {"measurement": "changes in lipid composition associated with inhibition of arabinan synthesis", "setting": "M. smegmatis mc^2155 [11]", "result": "did not result in significant changes"},
      {"measurement": "MIC", "setting": "M. avium", "result": 16, "unit": "µg/mL"},
      {"measurement": "MIC", "setting": "M. bovis", "result": "2 to 4", "unit": "µg/mL"},
      {"measurement": "MIC", "setting": "M. tuberculosis", "result": "2 to 4", "unit": "µg/mL"},
      {"measurement": "MIC", "setting": "M. smegmatis", "result": "2 to 4", "unit": "µg/mL"},
      {"measurement": "MIC", "setting": "M. kansasii", "result": 0.5, "unit": "µg/mL"},
      {"measurement": "MIC", "setting": "M. abscessus", "result": "> 32", "unit": "µg/mL"},
      {"measurement": "IC50", "setting": "M. smegmatis DprE1 C394A [12]", "result": "3.9 ± 1", "unit": "µM"},
      {"measurement": "IC50", "setting": "M. smegmatis DprE1 C394S [13]", "result": "12.1 ± 1.2", "unit": "µM"},
      {"measurement": "IC50", "setting": "M. smegmatis DprE1 L282F", "result": "1 ± 0.7", "unit": "µM"},
      {"measurement": "IC50", "setting": "M. smegmatis DprE1 L282V", "result": "50.6 ± 9.2", "unit": "µM"}
    ]},
    {"compound": "Ivermectin", "values": [
      {"measurement": "IC50", "setting": "M. smegmatis DprE1 [4]; read-out: IC50", "result": "13.2 ± 3.3", "unit": "µM"}
    ]},
    {"compound": "Milbemycin oxime", "values": [
      {"measurement": "IC50", "setting": "M. smegmatis DprE1 [4]; read-out: IC50", "result": "25.5 ± 5.6", "unit": "µM"}
    ]}
  ]
}
